Experiment [1] relates to passively sensitized SART stressed guinea pigs. In words: Nasal secretion (dyed thread length) after nasal provocation with ovalbumin in passively sensitized SART stressed guinea pigs. The format is in vivo, guinea pig (male Hartley strain). As to conditions: for Inhibition: inhibition of nasal secretion vs control. The protocol:
Male Hartley strain guinea pigs weighing 300 to 500 g were used. The threshold of nasal mucosal sensitivity to methacholine of these animals was previously measured with a nasal thread dyed with fluorescein, and those guinea pigs having normal sensitivity were divided into groups of 7 or 8 animals making the average of the threshold of sensitivity substantially equal in each group. To load SART stress, the guinea pigs were kept in a thermostatic box at the environmental temperature of 0° C. and 24° C. alternately for one hour period from 10:00 a.m. to 5:00 p.m., and at 0° C. from 5:00 p.m. to 10:00 a.m. the next day. This stress loading was continued for 5 days prior to sensitization. The stress-loaded guinea pigs from the previous example were sensitized intraperitoneally using 20 μg of ovalbumin and 10 mg of aluminum hydroxide (adjuvant) in 1 ml of saline 7 times every 2 weeks. After 2 weeks of the sensitization, airway sensitization was performed by ultranebulization with 3 ml of 0.1% ovalbumin in saline for 5 consecutive days. One week later, nasal provocation was performed by application of 50 μl of 1% ovalbumin in saline on both anterior nares, and antiserum was collecting from guinea pigs showing typical nasal symptoms of nasal allergy such as sneeze, nasal secretion and asthma. This anti-ovalbumin serum was preserved at -80° C. The provocation was made by application of 50 μl of 1% ovalbumin on the left anterior naris 2 days after passive sensitization by intraperitoneally injecting 2 ml of diluted anti-ovalbumin serum from the previous example (diluted ratio;×1/8). […] Defatted cotton threads (No. 40/2) were dyed with 10% fluorescein-Na in physiological saline at one end, and were cut to a total length of 100 mm with the colored end 10 mm in length. About 15 mm of the colored end of the thread was inserted into the left anterior naris of the guinea pigs for 60 sec. The length of thread dyed with fluorescein due to nasal secretion was taken as a measure of the amount of nasal secretion. (A few threads can be used together when the amount of nasal secretion is large). […] The amount of nasal secretion was measured by the length of the colored portion of the thread dyed with fluorescein.

Experiment [2] has as its system actively sensitized guinea pigs. In words: Nasal secretion on repeated nasal provocations with ovalbumin in actively sensitized guinea pigs. The experiment is classed as in vivo, guinea pig. The settings on record: 1.0 mg/kg/day p.o. The protocol: Active sensitization was carried out in a manner similar to the preparation of anti-ovalbumin serum mentioned above. Namely, 1 μg ovalbumin and 5 mg of aluminum hydroxide (adjuvant) in 1 ml of saline were injected into guinea pigs intraperitoneally 6 times every 2 weeks.
Two weeks after the active sensitization with ovalbumin, 50 μl of 1% ovalbumin in saline was administered into both anterior nares to start nasal provocation with allergen. Then the nasal provocations with ovalbumin were repeated 1, 4, 7, 10 and 13 days after the first provocation.
Defatted cotton threads (No. 40/2) were dyed with 10% fluorescein-Na in physiological saline at one end, and were cut to a total length of 100 mm with the colored end 10 mm in length. About 15 mm of the colored end of the thread was inserted into the left anterior naris of the guinea pigs for 60 sec. The length of thread dyed with fluorescein due to nasal secretion was taken as a measure of the amount of nasal secretion. (A few threads can be used together when the amount of nasal secretion is large).
Enhanced nasal mucosal sensitivity was measured by using animals obtained by repeated nasal provocations with ovalbumin in actively sensitized guinea pigs with the allergen according to the method of Examples 4, 5 and 6. The inhibitory action for nasal secretion of Ketotifen fumarate (1.0 mg/kg/day, p.o.) was also measured using this assay system.

[3] abbreviates: Ketotifen fumarate 0.3 mg/kg/day p.o.
Setting [4] is: Ketotifen fumarate 1.0 mg/kg/day p.o.
[5] abbreviates: Ketotifen fumarate 3.0 mg/kg/day p.o.

The source of these data is US5063045A, “Method for evaluating antiallergic substances” (Nippon Zoki Pharmaceutical Co., Ltd., priority 1989, dated 1991).

Counter-ions that a name gives are not always drawn.

One may read the Inhibition as the change of the read-out against control, counted positive when it falls. Consider `CN1CCC(=C2c3ccccc3CC(=O)c3sccc32)CC1` [Ketotifen, Ketotifen fumarate], for which the Nasal secretion in experiment [1] (setting [3]) is given as 33.5 mm; in experiment [1] (setting [4]), 23.9 mm; in experiment [1] (setting [5]) it was 16.1 mm; in experiment [2] (1st provocation with allergen), 68.9 mm; in experiment [2] (2nd provocation with allergen (1 day)), 54.1 mm; in experiment [2] (3rd provocation with allergen (4 days)) it was 73.0 mm. Further, the values for the Nasal secretion in experiment [2] (4th provocation with allergen (7 days)), in experiment [2] (5th provocation with allergen (10 days)) and in experiment [2] (6th provocation with allergen (13 days)) were 68.5 mm, 77.3 mm and 96.9 mm, respectively. For the same compound, the Inhibition in experiment [1] (setting [3]) came to 25.5%; in experiment [1] (setting [4]), 46.9%; in experiment [1] (setting [5]) it was 64.2%.
